Among the data in patent US20060281786A1, “Compounds having activity at 5ht2c receptor and uses thereof” (priority 2003, published 2006) are melting point values, retold here.

The melting point is the temperature, or range, at which the solid turns liquid. For `COc1cc2c3c(n(C)c2cc1Br)CN(c1ccc(OC)c(OCCN2CCCCC2)c1)C3=O.Cl`, the melting point lay in the range of 227 to 229 °C.
